From US20260053861A1, “CELL COMPOSITIONS AND METHODS OF USING THE SAME” (THE REGENTS OF THE UNIVERSITY OF CALIFORNIA, priority 2022, published 2026) come the findings set out here.

Structures are written as SMILES. Counter-ions that a name gives are not always drawn. Non-standard residues stand in square brackets, D forms with d. Residues, ends and D or L forms follow the SMILES beside them. *: point of attachment. Sta = CC(C)C[C@H](N)[C@@H](O)CC(=O)O; Isovaleryl = CC(C)CC(=O)*

The test system of the first experiment is hPSC-SCs.
Settings: not given
`C[C@@H]1[C@H](O)[C@@H](C)/C=C/C=C/CC/C=C/C=C/C=C/C=C/C(O[C@H]2O[C@H](C)[C@@H](O)[C@H](N)[C@@H]2O)CC2O[C@](O)(CC(O)C(O)CCC(O)CC(O)CC(O)CC(=O)O[C@H]1C)CC(O)C2C(=O)O` (stereo partly shown) [Nystatine] showed a z.score.t of 1.992. Consider `CCCCc1ccc2[nH]c(NC(=O)OC)nc2c1` [Parbendazole], for which the z.score.t was −1.543.

Take `C[N+]1(CCCCC[N+]2(C)CCCC2)CCCC1.O=C([O-])C(O)C(O)C(=O)O.O=C([O-])C(O)C(O)C(=O)O` [Pentolinium bitartrate]: the z.score.t came to 0.2038.

For `CC(C)CC(=O)N[C@H](C(=O)N[C@H](C(=O)N[C@@H](CC(C)C)[C@@H](O)CC(=O)N[C@@H](C)C(=O)N[C@@H](CC(C)C)[C@@H](O)CC(=O)O)C(C)C)C(C)C` [Pepstatin A] (Isovaleryl-VV[Sta]A[Sta]-OH), the z.score.t is reported as −1.319. With `CC(COc1ccccc1)N(CCCl)Cc1ccccc1` (stereo not shown) [Phenoxybenzamine hydrochloride], the z.score.t came to 0.03421. Take `CC(N)C(O)c1ccccc1` (stereo not shown) [Phenylpropanolamine hydrochloride]: the z.score.t is listed as −0.8304. With `C=C(C)[C@@H]1[C@H]2OC(=O)[C@@H]1[C@]1(O)C[C@H]3O[C@]34C(=O)O[C@H]2[C@]14C` [Picrotoxinin], the z.score.t worked out at 1.281. The compound `CCN1CCCC(OC(=O)C(c2ccccc2)c2ccccc2)C1` (stereo not shown) [Piperidolate hydrochloride] came in with a z.score.t of −1.025.

The experiment is the same for the next values; noted with them: HTS viability of hPSC-SCs in the presence of 30 mM glucose; Prestwick library; Table S4.
`CO[C@@H]1[C@@H](OC(N)=O)[C@@H](O)[C@H](Oc2ccc3c(O)c(NC(=O)c4ccc(O)c(CC=C(C)C)c4)c(=O)oc3c2C)OC1(C)C` [Novobiocin sodium salt]: the z.score.t is 1.481.

Regarding `CC1COc2c(N3CCN(C)CC3)c(F)cc3c(=O)c(C(=O)O)cn1c23` (stereo not shown) [Ofloxacin], the z.score.t is −1.243.

Take `CO[C@H]1C[C@H](O[C@H]2[C@H](C)[C@@H](O[C@@H]3O[C@H](C)C[C@H](N(C)C)[C@H]3O)[C@@H](C)C[C@@]3(CO3)C(=O)[C@H](C)[C@@H](O)[C@@H](C)[C@@H](C)OC(=O)[C@@H]2C)O[C@@H](C)[C@@H]1O` [Oleandomycin phosphate]: the z.score.t is given as −0.5417. In the case of `COc1ccc2[nH]c([S+]([O-])Cc3ncc(C)c(OC)c3C)nc2c1` (stereo not shown) [Omeprazole], the z.score.t came out at 0.1344. In the case of `Cc1nccn1CC1CCc2c(c3ccccc3n2C)C1=O` (stereo not shown) [Ondansetron Hydrochloride], the z.score.t is recorded as −0.3173.

For the compound `Cc1ncc([N+](=O)[O-])n1CC(O)CCl` (stereo not shown) [Ornidazole], the z.score.t came to 0.1446.

Turning to `Cc1ccccc1C(OCCN(C)C)c1ccccc1` (stereo not shown) [Orphenadrine hydrochloride], the z.score.t is reported as −1.003. In the case of `CCN(CC)CCc1nc(-c2ccccc2)no1.O=C(O)CC(O)(CC(=O)O)C(=O)O` [Oxalamine citrate salt], the z.score.t is listed as −0.3023. As for `CN1CCCN=C1/C=C/c1cccc(O)c1.O=C(O)c1cc2ccccc2c(Cc2c(O)c(C(=O)O)cc3ccccc23)c1O` [Oxantel pamoate], the z.score.t was −0.3936.

Consider `O=C(O)CCc1nc(-c2ccccc2)c(-c2ccccc2)o1` [Oxaprozin], for which the z.score.t amounted to 0.0827. The same measure, in the same setting: the same measure for `CN(C(=O)CN(CCO)CC(=O)N(C)C(C)(C)Cc1ccccc1)C(C)(C)Cc1ccccc1` [Oxethazaine]: −1.253; for `CCn1cc(C(=O)O)c(=O)c2cc3c(cc21)OCO3` [Oxolinic acid]: 1.315.

Take `C=CCOc1ccccc1OCC(O)CNC(C)C` (stereo not shown) [Oxprenolol hydrochloride]: the z.score.t was −1.046.

In the case of `COc1ccc(C(=O)c2ccccc2)c(O)c1` [Oxybenzone], the z.score.t is recorded as −0.6594. For the compound `CCN(CC)CC#CCOC(=O)C(O)(c1ccccc1)C1CCCCC1` (stereo not shown) [Oxybutynin chloride], the z.score.t is −0.7013. In the case of `Cc1cc(C(C)(C)C)c(O)c(C)c1CC1=NCCN1` [Oxymetazoline hydrochloride], the z.score.t is reported as −0.7524. Take `CCCCC1C(=O)N(c2ccccc2)N(c2ccc(O)cc2)C1=O` (stereo not shown) [Oxyphenbutazone]: the z.score.t is −0.8111.

Regarding `CN(C)[C@@H]1C(O)=C(C(N)=O)C(=O)[C@@]2(O)C(O)=C3C(=O)c4c(O)cccc4[C@@](C)(O)[C@H]3[C@H](O)[C@@H]12` [Oxytetracycline dihydrate], the z.score.t was −0.09426. With `O=C(O)/C=C/c1ccc(Cn2ccnc2)cc1` [Ozagrel hydrochloride], the z.score.t is listed as −1.148. Turning to `CC(=O)O[C@H]1C(=O)[C@@]2(C)[C@H]([C@H](OC(=O)c3ccccc3)[C@]3(O)C[C@H](OC(=O)[C@H](O)[C@@H](NC(=O)c4ccccc4)c4ccccc4)C(C)=C1C3(C)C)[C@]1(OC(C)=O)CO[C@@H]1C[C@@H]2O` [Paclitaxel], the z.score.t is reported as −1.418.

Take `COc1cc2c(cc1OC)-c1cc3ccc(OC)c(OC)c3c[n+]1CC2` [Palmatine chloride]: the z.score.t was 0.5822.

In the case of `CC(=O)O[C@H]1C[C@@H]2CC[C@@H]3[C@H](CC[C@@]4(C)[C@H]3C[C@H]([N+]3(C)CCCCC3)[C@@H]4OC(C)=O)[C@@]2(C)C[C@@H]1[N+]1(C)CCCCC1` [Pancuronium bromide], the z.score.t was 0.1543.

Regarding `CC(C)(CO)[C@@H](O)C(=O)NCCCO` [Panthenol (D)], the z.score.t was 0.6517. For the compound `CC(C)(CO)[C@@H](O)C(=O)NCCC(=O)O` [Pantothenic acid calcium salt monohydrate], the z.score.t is −0.9817. As for `COc1ccc(Cc2nccc3cc(OC)c(OC)cc23)cc1OC` [Papaverine hydrochloride], the z.score.t was determined as 0.1556. `C#CCN(C)Cc1ccccc1` [Pargyline hydrochloride]: the z.score.t amounted to 0.7789. Still for that read-out and setting: the same measure for `NC[C@@H]1O[C@H](O[C@H]2[C@@H](O)[C@H](O[C@@H]3[C@@H](O)[C@H](N)C[C@H](N)[C@H]3O[C@H]3O[C@H](CO)[C@@H](O)[C@H](O)[C@H]3N)O[C@@H]2CO)[C@H](N)[C@@H](O)[C@@H]1O` [Paromomycin sulfate]: −1.074. Consider `Fc1ccc([C@@H]2CCNC[C@H]2COc2ccc3c(c2)OCO3)cc1` [Paroxetine Hydrochloride], for which the z.score.t is reported as −1.138. The same measure, in the same setting: for `CN1C(C)(C)CCCC1(C)C` [Pempidine tartrate] the value was −0.5583; for `CC(C)(C)NC[C@H](O)COc1ccccc1C1CCCC1` [Penbutolol sulfate], −0.9376.

With `N=C(N)c1ccc(OCCCCCOc2ccc(C(=N)N)cc2)cc1` [Pentamidine isethionate], the z.score.t is −0.8129. `O=C(O)CN(CCN(CC(=O)O)CC(=O)O)CCN(CC(=O)O)CC(=O)O` [Pentetic acid]: the z.score.t is given as −0.3461. As for `CC(=O)CCCCn1c(=O)c2c(ncn2C)n(C)c1=O` [Pentoxifylline], the z.score.t turned out to be 1.045. Turning to `C1CCc2nnnn2CC1` [Pentylenetetrazole], the z.score.t is 1.171. With `CCCN1C[C@H](CSC)C[C@@H]2c3cccc4[nH]cc(c34)C[C@H]21` [Pergolide mesylate], the z.score.t is 0.1298. In the case of `C1CCC(C(CC2CCCCN2)C2CCCCC2)CC1` (stereo not shown) [Perhexiline maleate], the z.score.t is −1.682. Still for that read-out and setting: for `CCC[C@H](N[C@@H](C)C(=O)N1[C@H](C(=O)O)C[C@@H]2CCCC[C@@H]21)C(=O)OCC` [Perindopril] the value was 2.067.

For `OCCN1CCN(CCCN2c3ccccc3Sc3ccc(Cl)cc32)CC1` [Perphenazine], the z.score.t was −1.746. For the compound `CCOc1ccc(NC(C)=O)cc1` [Phenacetin], the z.score.t is on record as 0.8023.

For `Nc1ccc(/N=N/c2ccccc2)c(N)n1` [Phenazopyridine hydrochloride], the z.score.t is given as 1.999. Same read-out and setting: the same measure for `NNCCc1ccccc1` [Phenelzine sulfate]: 0.852; for `CC(Oc1ccccc1)C(=O)N[C@@H]1C(=O)N2[C@@H]1SC(C)(C)[C@@H]2C(=O)O` (stereo partly shown) [Phenethicillin potassium salt]: 0.7158; for `[H]/N=C(/N)N/C(=N/[H])NCCc1ccccc1` [Phenformin hydrochloride]: 0.9109. Take `O=C1c2ccccc2C(=O)C1c1ccccc1` [Phenindione]: the z.score.t came out at 0.7312. As to `CN(C)CCC(c1ccccc1)c1ccccn1` (stereo not shown) [Pheniramine maleate], the z.score.t is reported as −0.09426.

Consider `CN1C(=O)CC(c2ccccc2)C1=O` (stereo not shown) [Phensuximide], for which the z.score.t worked out at 1.669. Same read-out and setting: the same measure for `Cc1ccc(N(CC2=NCCN2)c2cccc(O)c2)cc1` [Phentolamine hydrochloride]: −0.1241.

As to `O=C(O)c1ccccc1C(=O)Nc1ccc(S(=O)(=O)Nc2nccs2)cc1` [Phthalylsulfathiazole], the z.score.t is −1.317. Consider `COc1ccc(C(=O)NCc2cccnc2)cc1C(=O)NCc1cccnc1` [Picotamide monohydrate], for which the z.score.t is on record as −0.04944. The same measure, in the same setting: the same measure for `CC[C@@H]1C(=O)OC[C@@H]1Cc1cncn1C` [Pilocarpine nitrate]: 1.139; for `CN1CCC(=C2c3ccccc3Sc3ccccc32)CC1` [Pimethixene maleate]: −1.233. Regarding `O=c1[nH]c2ccccc2n1C1CCN(CCCC(c2ccc(F)cc2)c2ccc(F)cc2)CC1` [Pimozide], the z.score.t was −1.173. `CC(N/C(=N\C#N)Nc1ccncc1)C(C)(C)C` (stereo not shown) [Pinacidil]: the z.score.t is listed as −0.03449. Turning to `CC(C)NCC(O)COc1cccc2[nH]ccc12` (stereo not shown) [Pindolol], the z.score.t was 0.2038. Same read-out and setting: the same measure for `CCn1cc(C(=O)O)c(=O)c2cnc(N3CCNCC3)nc21` [Pipemidic acid]: 0.4318. `CC[N+]1(C)CCCC(OC(=O)C(O)(c2ccccc2)c2ccccc2)C1` (stereo not shown) [Pipenzolate bromide]: the z.score.t was determined as 0.4318. The same measure, in the same setting: the same measure for `CC(=O)c1ccc2c(c1)N(CCCN1CCC(CCO)CC1)c1ccccc1S2` [Piperacetazine]: −1.148; for `CCN1CCN(C(=O)N[C@@H](C(=O)N[C@@H]2C(=O)N3[C@@H]2SC(C)(C)[C@@H]3C(=O)O)c2ccccc2)C(=O)C1=O` [Piperacillin sodium salt]: 0.8465. Turning to `O=C(/C=C/C=C/c1ccc2c(c1)OCO2)N1CCCCC1` [Piperine], the z.score.t is listed as −0.1003.
